Measurements taken from patent US20120302609A1, “Pyrazolines for the Modulation of PKM2” (Dynamix Pharmaceuticals LTD., priority 2011, published 2012).

Key:
PKM2, human recombinant = biological target: T1, PKM2, human recombinant (Homo sapiens, UniProt P14618); experiment: PKM2 enzymatic activity assay (Kinase-Glo Plus luminescence); type: biochemical; details: for AC50: 0.1 nM PKM2, 0.1 mM ADP, 0.5 mM PEP, 1 hour, room temperature, read-out: AC50 group; for Emax: 1 h, maximum percent activity, luminescence without compound = 0% activity, read-out: Max activity Group;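 on Max activity Group: percent increase over no-compound signal after subtracting the no-PKM2 background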
T1 construct: purchased BPS 50295
T1 sequence (P14618 whole entry): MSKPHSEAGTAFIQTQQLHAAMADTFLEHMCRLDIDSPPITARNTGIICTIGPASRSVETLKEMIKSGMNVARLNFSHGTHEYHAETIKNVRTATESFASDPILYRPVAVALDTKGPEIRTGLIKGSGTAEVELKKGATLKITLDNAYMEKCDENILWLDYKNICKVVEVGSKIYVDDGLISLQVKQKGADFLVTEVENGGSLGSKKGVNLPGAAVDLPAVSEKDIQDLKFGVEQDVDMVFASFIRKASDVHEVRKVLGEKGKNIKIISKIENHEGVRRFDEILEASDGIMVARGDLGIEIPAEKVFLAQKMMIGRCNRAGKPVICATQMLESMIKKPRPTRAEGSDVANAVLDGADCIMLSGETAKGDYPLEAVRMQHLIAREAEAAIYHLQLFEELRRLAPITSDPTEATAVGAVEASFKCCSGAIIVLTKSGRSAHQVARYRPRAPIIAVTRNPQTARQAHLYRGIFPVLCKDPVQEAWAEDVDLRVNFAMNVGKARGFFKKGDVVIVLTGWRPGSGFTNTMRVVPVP
Outline: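 Activation assay: 0.1 nM recombinant human PKM2 with 0.1 mM ADP and 0.5 mM PEP in imidazole buffer pH 7.2, 1 hour at room temperature, in duplicate; ATP produced read by Kinase-Glo Plus luminescence. % activity relative to no-compound and no-enzyme wells; AC50 as half-maximal activation from sigmoidal fit; FBP 0.5 mM positive control.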

BT-549 (breast) = experiment: Cell proliferation assay (CellTiter-Glo Luminescent); type: cell-based; details: Homo sapiens, Complete media
H1299 (lung) = experiment: as above; type: cell-based, human; details: 96 hr
Protocol: 1. Cells were grown according to the ATCC conditions. 2. Cell feeding (passaging) was timed such that the cells were in exponential growth phase at the time of the assay.
3. On day 1, H1299 cells were counted. Cell numbers were adjusted to the desired cell concentration in Media 1: RPMI 1640 Invitrogen 11879020 (that contained no glucose or pyruvate) with 10% FBS, and 1 mM D-Glucose (4 μl of 2.5 M D-glucose G8769 was added in preparing 10 ml RPMI media with 1 mM glucose). A 200 μl of H1299 cell suspension was added to appropriate wells in the 96-well plates, and incubated at 37° C. in the CO2 cell incubator under normal growing conditions for overnight. 4. On day 2, a 100 mM stock concentration of test compounds in 100% DMSO was prepared and serially diluted with 100% DMSO to 33.33 mM, 11.11 mM, and 3.7 mM. A 1:1000 dilution was made to each concentration in media 1 (yielding 0.1% final DMSO concentration). The media was aspirated completely from the cell plate. Each 100 μl of the following solutions (100 μM, 33.33 μM, 11.11 μM, and 3.7 μM) was added to the cells. DMSO in a final concentration of 0.1%, and media without DMSO, were added to the cells and used as a negative control. Empty wells around the experimental wells were filled with PBS. The plate was sealed with parafilm to reduce evaporation. 5. The plate was incubated under normal conditions (5% CO2, and 95% air), for 96 hours at 37° C. 6. On day 6 (after 96 hr incubation), the plate was equilibrated to room temperature for approximately 30 minutes. A 100 μl of CellTiter-Glo Reagent was added in each well of the plate. Contents were mixed for 2 minutes on an orbital shaker to induce cell lysis. The plate was incubated at room temperature for 10 minutes to stabilize luminescent signal. Luminescence was recorded with Flexstation 3.
Unless noted otherwise, proliferation of control or compound treated H1299 cells was measured using CellTiter-Glo Luminescent assay following 96 hr incubation of the cells with and without test compounds. The AC50 values, shown in Table 3, were coded according to follows: A: <3 μM; B: 3-10 μM; C: 10-20 μM; or D: >20 μM.

HCT-116 (colon) = experiment: as above; type: cell-based; details: Homo sapiens, 1 mM glucose, 96 hr
PKL = PKL (Homo sapiens, UniProt P30613); experiment: Isoform selectivity of pyruvate kinases; type: biochemical
Chain of PKL (P30613 1-543 isoform P30613-2): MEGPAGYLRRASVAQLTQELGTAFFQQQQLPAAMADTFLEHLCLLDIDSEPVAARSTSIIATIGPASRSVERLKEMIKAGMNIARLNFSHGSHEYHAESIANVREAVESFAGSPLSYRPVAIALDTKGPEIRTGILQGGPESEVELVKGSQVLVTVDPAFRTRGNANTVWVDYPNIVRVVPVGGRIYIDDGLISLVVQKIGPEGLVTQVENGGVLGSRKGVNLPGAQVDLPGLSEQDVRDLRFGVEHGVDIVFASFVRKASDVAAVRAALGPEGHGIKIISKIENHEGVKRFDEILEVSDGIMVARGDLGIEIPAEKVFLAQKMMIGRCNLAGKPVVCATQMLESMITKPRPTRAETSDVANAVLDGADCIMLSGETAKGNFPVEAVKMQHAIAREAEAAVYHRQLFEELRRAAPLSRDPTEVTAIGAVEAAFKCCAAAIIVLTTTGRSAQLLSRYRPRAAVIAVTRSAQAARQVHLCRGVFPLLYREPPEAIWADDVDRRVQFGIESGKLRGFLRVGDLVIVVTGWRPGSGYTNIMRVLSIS

[1] = Homo sapiens, NCI-H1299, 1 mM glucose

Compound	AC50 (PKM2, human recombinant) [µM]	Emax (PKM2, human recombinant) [%]	AC50 (BT-549 (breast); Assay duration: 72 hours, Readout: CellTiter Glo) [µM]	AC50 (H1299 (lung); [1]) [µM]	AC50 (BT-549 (breast); 96 hr, CellTiter-Glo) [µM]	AC50 (H1299 (lung); 5 mM glucose) [µM]	AC50 (H1299 (lung); Complete media) [µM]	AC50 (HCT-116 (colon)) [µM]	AC50 (PKL) [µM]
CCS(=O)(=O)Nc1ccc(C2=NN(C(C)=O)C(c3ccc(OC)cc3)C2)cc1 (racemic) [Compound 1A, N-(4-(1-acetyl-5-(4-methoxyphenyl)-4,5-dihydro-1H-pyrazol-3-yl)phenyl)ethanesulfonamide]	≤ 1	130 to 200	> 20	10 to 20					
COc1ccc([C@@H]2CC(c3ccc(NS(=O)(=O)c4ccc(F)cc4)cc3)=NN2C(C)=O)cc1 [Compound 13A, (S)—N-(4-(1-acetyl-5-(4-methoxyphenyl)-4,5-dihydro-1H-pyrazol-3-yl)phenyl)-4-fluorobenzenesulfonamide]	≤ 1	130 to 200		10 to 20	10 to 20	10 to 20	10 to 20	10 to 20	> 11
